# Data: PubChem BioAssay (NCI)
#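 Following 48 hours of exposure in 96-well plates, responses at five concentrations were used to interpolate endpoints linearly. TGI is the concentration that stops growth completely.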
# Legend:
# Experiment in all cases: NCI-60 cell line screen, 48 h
# [1] = system: DU-145 prostate
# [2] = system: U251 CNS
# [3] = system: T-47D breast
# [4] = system: BT-549 breast
# [5] = system: NCI/ADR-RES ovarian
# [6] = system: SF-268 CNS
# [7] = system: HOP-92 NSCLC
# [8] = system: HT29 colon
# [9] = system: NCI-H226 lung
# [10] = system: LOX IMVI melanoma
# [11] = system: SR leukemia
# [12] = system: HS 578T breast
# [13] = system: SK-MEL-2 melanoma
# [14] = system: ACHN renal
# [15] = system: MDA-MB-435
# [16] = system: SK-MEL-5 melanoma
# [17] = system: OVCAR-4 ovarian
# [18] = system: SK-OV-3 ovarian
# [19] = system: RXF 393 renal
# [20] = system: MDA-N
# [21] = system: SNB-75 CNS
# [22] = system: NCI-H460 lung
# [23] = system: OVCAR-5 ovarian
# [24] = system: UACC-257 melanoma
# [25] = system: HL-60(TB) leukemia
# [26] = system: SW-620 colon
# [27] = system: MCF7 breast
# [28] = system: MOLT-4 leukemia
# [29] = system: OVCAR-3 ovarian
# [30] = system: SNB-19 CNS
# [31] = system: CAKI-1 renal
# [32] = system: M14 melanoma
# [33] = system: PC-3 prostate
# [34] = system: COLO 205 colon
# [35] = system: OVCAR-8 ovarian
# [36] = system: KM12 colon
# [37] = system: 786-0 renal
# [38] = system: SK-MEL-28 melanoma
# [39] = system: UO-31 renal
# [40] = system: TK-10 renal
# [41] = system: A549 NSCLC
# [42] = system: HCT-116 colon
# [43] = system: SF-295 CNS
# [44] = system: K-562 leukemia
# [45] = system: NCI-H522 lung
# [46] = system: SN12C renal
# [47] = system: EKVX NSCLC
# [48] = system: CCRF-CEM leukemia
# [49] = system: HCC-2998 colon
# [50] = system: SF-539 CNS
# [51] = system: MALME-3M melanoma
# [52] = system: HCT-15 colon
# [53] = system: UACC-62 melanoma
# [54] = system: MDA-MB-231 breast
# [55] = system: NCI-H23 lung
smiles,measurement,setting,value
O=S1C2=C(Cc3ccccc3)C(Cc3ccccc3)=C1CCc1cccc(c1)CC2,TGI,[1],30.3 µM
same,TGI,[2],26.8 µM
same,TGI,[3],44.8 µM
same,TGI,[4],27.2 µM
same,TGI,[5],38.7 µM
same,TGI,[6],31.8 µM
same,TGI,[7],26.4 µM
same,TGI,[8],26 µM
same,TGI,[9],47.8 µM
same,TGI,[10],28.1 µM
same,TGI,[11],90.2 µM
same,TGI,[12],48.8 µM
same,TGI,[13],31.1 µM
same,TGI,[14],30.8 µM
same,TGI,[15],27.5 µM
same,TGI,[16],30 µM
same,TGI,[17],21.4 µM
same,TGI,[18],24.3 µM
same,TGI,[19],19.7 µM
same,TGI,[20],30.6 µM
same,TGI,[21],27.8 µM
same,TGI,[22],26.8 µM
same,TGI,[23],35.5 µM
same,TGI,[24],27.8 µM
same,TGI,[25],59.8 µM
same,TGI,[26],77.9 µM
same,TGI,[27],25.7 µM
same,TGI,[28],63.7 µM
same,TGI,[29],23.5 µM
same,TGI,[30],28.1 µM
same,TGI,[31],28.7 µM
same,TGI,[32],29 µM
same,TGI,[33],29.3 µM
same,TGI,[34],58.8 µM
same,TGI,[35],34 µM
same,TGI,[36],26.7 µM
same,TGI,[37],28.9 µM
same,TGI,[38],42.3 µM
same,TGI,[39],25.8 µM
same,TGI,[40],33.7 µM
same,TGI,[41],36.3 µM
same,TGI,[42],21.5 µM
same,TGI,[43],27.1 µM
same,TGI,[44],> 100 µM
same,TGI,[45],27.6 µM
same,TGI,[46],30.6 µM
same,TGI,[47],26.3 µM
same,TGI,[48],> 100 µM
same,TGI,[49],27.5 µM
same,TGI,[50],41 µM
same,TGI,[51],32.5 µM
same,TGI,[52],30.5 µM
same,TGI,[53],24.7 µM
same,TGI,[54],31.3 µM
same,TGI,[55],28.2 µM
